Reference: ChEMBL document CHEMBL3400015, “Tertiary amides of Salinomycin: A new group of antibacterial agents against Bacillus anthracis and methicillin-resistant Staphylococcus epidermidis” (Bioorg Med Chem Lett, 2015)

What was measured:
Assay type in all cases: functional
[1] = system: Staphylococcus epidermidis; experiment: Antimicrobial activity against methicillin-resistant Staphylococcus epidermidis isolate 424/10 after 18 hrs by twofold serial broth dilution method; conditions: isolate 424/10, 18 h
[2] = system: Staphylococcus epidermidis; experiment: Bactericidal activity against methicillin-resistant Staphylococcus epidermidis isolate 409/10 after 24 hrs; conditions: isolate 409/10, 24 h, read-out: MBC99.9
Staphylococcus aureus [3] = experiment: Antimicrobial activity against Staphylococcus aureus ATCC 6538 after 18 hrs by twofold serial broth dilution method; conditions: ATCC 6538, 18 h
Escherichia coli [4] = experiment: Antimicrobial activity against Escherichia coli ATCC 10538 after 18 hrs by twofold serial broth dilution method; conditions: ATCC 10538, 18 h
[5] = system: Staphylococcus epidermidis; experiment: Antimicrobial activity against methicillin-resistant Staphylococcus epidermidis isolate 455/11 after 18 hrs by twofold serial broth dilution method; conditions: isolate 455/11, 18 h
[6] = system: Staphylococcus epidermidis; experiment: Bactericidal activity against methicillin-resistant Staphylococcus epidermidis isolate 404/10 after 24 hrs; conditions: isolate 404/10, 24 h, read-out: MBC99.9
Escherichia coli [7] = experiment: Bactericidal activity against Escherichia coli ATCC 25922 after 24 hrs; conditions: ATCC 25922, 24 h, read-out: MBC99.9
Escherichia coli [8] = experiment: Antimicrobial activity against Escherichia coli NCTC 8196 after 18 hrs by twofold serial broth dilution method; conditions: NCTC 8196, 18 h
[9] = system: Staphylococcus epidermidis; experiment: Antimicrobial activity against methicillin-resistant Staphylococcus epidermidis isolate 454/11 after 18 hrs by twofold serial broth dilution method; conditions: isolate 454/11, 18 h
Pseudomonas aeruginosa [10] = experiment: Bactericidal activity against Pseudomonas aeruginosa ATCC 27853 after 24 hrs; conditions: ATCC 27853, 24 h, read-out: MBC99.9
Staphylococcus aureus [11] = experiment: Bactericidal activity against Staphylococcus aureus […] after 24 hrs; conditions: read-out: MBC99.9
[12] = system: Staphylococcus epidermidis; experiment: Antimicrobial activity against methicillin-resistant Staphylococcus epidermidis isolate 403/10 after 18 hrs by twofold serial broth dilution method; conditions: isolate 403/10, 18 h
[13] = system: Staphylococcus epidermidis; experiment: Antimicrobial activity against methicillin-resistant Staphylococcus epidermidis isolate 469/11 after 18 hrs by twofold serial broth dilution method; conditions: isolate 469/11, 18 h
[14] = system: Staphylococcus epidermidis; experiment: Bactericidal activity against Staphylococcus epidermidis ATCC 35984 after 24 hrs; conditions: ATCC 35984, 24 h, read-out: MBC99.9
[15] = system: Staphylococcus epidermidis; experiment: Antimicrobial activity against methicillin-resistant Staphylococcus epidermidis isolate 461/11 after 18 hrs by twofold serial broth dilution method; conditions: isolate 461/11, 18 h
[16] = system: Staphylococcus epidermidis; experiment: Bactericidal activity against methicillin-resistant Staphylococcus epidermidis isolate 454/11 after 24 hrs; conditions: isolate 454/11, 24 h, read-out: MBC99.9
[17] = system: Staphylococcus epidermidis; experiment: Antimicrobial activity against methicillin-resistant Staphylococcus epidermidis isolate 459/11 after 18 hrs by twofold serial broth dilution method; conditions: isolate 459/11, 18 h
Staphylococcus aureus [18] = experiment: Bactericidal activity against Staphylococcus aureus ATCC 25923 after 24 hrs; conditions: ATCC 25923, 24 h, read-out: MBC99.9
Bacillus anthracis = experiment: Antimicrobial activity against Bacillus anthracis 34F2 after 18 hrs by twofold serial broth dilution method; conditions: 34F2, 18 h
[19] = system: Staphylococcus epidermidis; experiment: Antimicrobial activity against methicillin-resistant Staphylococcus epidermidis isolate 409/10 after 18 hrs by twofold serial broth dilution method; conditions: isolate 409/10, 18 h
Staphylococcus aureus [20] = experiment: Bactericidal activity against Staphylococcus aureus ATCC 6538 after 24 hrs; conditions: ATCC 6538, 24 h, read-out: MBC99.9
[21] = system: Staphylococcus epidermidis; experiment: Bactericidal activity against methicillin-resistant Staphylococcus epidermidis isolate 460/11 after 24 hrs; conditions: isolate 460/11, 24 h, read-out: MBC99.9
[22] = system: Staphylococcus epidermidis; experiment: Bactericidal activity against methicillin-resistant Staphylococcus epidermidis isolate 455/11 after 24 hrs; conditions: isolate 455/11, 24 h, read-out: MBC99.9
Escherichia coli [23] = experiment: Bactericidal activity against Escherichia coli ATCC 10538 after 24 hrs; conditions: ATCC 10538, 24 h, read-out: MBC99.9
[24] = system: Staphylococcus epidermidis; experiment: Antimicrobial activity against methicillin-resistant Staphylococcus epidermidis isolate 422/10 after 18 hrs by twofold serial broth dilution method; conditions: isolate 422/10, 18 h
Staphylococcus aureus [25] = experiment: Antimicrobial activity against Staphylococcus aureus ATCC 25923 after 18 hrs by twofold serial broth dilution method; conditions: ATCC 25923, 18 h
[26] = system: Staphylococcus epidermidis; experiment: Antimicrobial activity against methicillin-resistant Staphylococcus epidermidis isolate 404/10 after 18 hrs by twofold serial broth dilution method; conditions: isolate 404/10, 18 h
[27] = system: Staphylococcus epidermidis; experiment: Antimicrobial activity against methicillin-resistant Staphylococcus epidermidis isolate 470/11 after 18 hrs by twofold serial broth dilution method; conditions: isolate 470/11, 18 h
[28] = system: Staphylococcus epidermidis; experiment: Bactericidal activity against methicillin-resistant Staphylococcus epidermidis isolate 422/10 after 24 hrs; conditions: isolate 422/10, 24 h, read-out: MBC99.9
Pseudomonas aeruginosa [29] = experiment: Antimicrobial activity against Pseudomonas aeruginosa NCTC 6749 after 18 hrs by twofold serial broth dilution method; conditions: NCTC 6749, 18 h
[30] = system: Staphylococcus epidermidis; experiment: Antimicrobial activity against Staphylococcus epidermidis ATCC 35984 after 18 hrs by twofold serial broth dilution method; conditions: ATCC 35984, 18 h
Pseudomonas aeruginosa [31] = experiment: Antimicrobial activity against Pseudomonas aeruginosa ATCC 15442 after 18 hrs by twofold serial broth dilution method; conditions: ATCC 15442, 18 h
[32] = system: Staphylococcus epidermidis; experiment: Antimicrobial activity against methicillin-resistant Staphylococcus epidermidis isolate 457/11 after 18 hrs by twofold serial broth dilution method; conditions: isolate 457/11, 18 h
[33] = system: Staphylococcus epidermidis; experiment: Bactericidal activity against methicillin-resistant Staphylococcus epidermidis isolate 424/10 after 24 hrs; conditions: isolate 424/10, 24 h, read-out: MBC99.9
[34] = system: Staphylococcus epidermidis; experiment: Antimicrobial activity against methicillin-resistant Staphylococcus epidermidis isolate 405/10 after 18 hrs by twofold serial broth dilution method; conditions: isolate 405/10, 18 h
Pseudomonas aeruginosa [35] = experiment: Bactericidal activity against Pseudomonas aeruginosa ATCC 15442 after 24 hrs; conditions: ATCC 15442, 24 h, read-out: MBC99.9
[36] = system: Staphylococcus epidermidis; experiment: Bactericidal activity against methicillin-resistant Staphylococcus epidermidis isolate 469/11 after 24 hrs; conditions: isolate 469/11, 24 h, read-out: MBC99.9
Escherichia coli [37] = experiment: Bactericidal activity against Escherichia coli NCTC 8196 after 24 hrs; conditions: NCTC 8196, 24 h, read-out: MBC99.9
[38] = system: Staphylococcus epidermidis; experiment: Bactericidal activity against methicillin-resistant Staphylococcus epidermidis isolate 405/10 after 24 hrs; conditions: isolate 405/10, 24 h, read-out: MBC99.9
[39] = system: Staphylococcus epidermidis; experiment: Bactericidal activity against methicillin-resistant Staphylococcus epidermidis isolate 403/10 after 24 hrs; conditions: isolate 403/10, 24 h, read-out: MBC99.9
Staphylococcus aureus [40] = experiment: Antimicrobial activity against Staphylococcus aureus […] after 18 hrs by twofold serial broth dilution method

CC[C@@H](C(=O)[C@@H](C)[C@@H](O)[C@H](C)[C@@H]1O[C@@H]([C@@H](CC)C(=O)N2CCOCC2)CC[C@@H]1C)[C@H]1O[C@]2(C=C[C@@H](O)[C@]3(CC[C@@](C)([C@H]4CC[C@](O)(CC)[C@H](C)O4)O3)O2)[C@H](C)C[C@@H]1C
128 µg/mL: MIC (Staphylococcus aureus [3]) | MIC [9] | MIC [17] | MIC (Bacillus anthracis) | MIC (Staphylococcus aureus [25]) | MIC (Pseudomonas aeruginosa [29]) | MIC [30]
256 µg/mL: MIC [1] | MIC (Escherichia coli [4]) | MIC [5] | MIC (Escherichia coli [8]) | MIC [12] | MIC [19] | MIC [24] | MIC [26] | MIC [27] | MIC (Pseudomonas aeruginosa [31]) | MIC [32] | MIC [34] | MIC (Staphylococcus aureus [40])
> 256 µg/mL: MBC [2] | MBC [6] | MBC (Escherichia coli [7]) | MBC (Pseudomonas aeruginosa [10]) | MBC (Staphylococcus aureus [11]) | MIC [13] | MBC [14] | MIC [15] | MBC [16] | MBC (Staphylococcus aureus [18]) | MBC (Staphylococcus aureus [20]) | MBC [21] | MBC [22] | MBC (Escherichia coli [23]) | MBC [28] | MBC [33] | MBC (Pseudomonas aeruginosa [35]) | MBC [36] | MBC (Escherichia coli [37]) | MBC [38] | MBC [39]

O=C(O)c1cn(C2CC2)c2cc(N3CCNCC3)c(F)cc2c1=O [CIPROFLOXACIN]
64 µg/mL: MBC [2] | MBC [28]
0.25 µg/mL: MIC (Staphylococcus aureus [3]) | MBC (Pseudomonas aeruginosa [10]) | MIC [15] | MBC [16] | MBC (Pseudomonas aeruginosa [35])
> 256 µg/mL: MBC [6] | MBC [22]
8 µg/mL: MIC [1] | MIC [12] | MIC [13]
2 µg/mL: MBC (Staphylococcus aureus [11]) | MBC (Staphylococcus aureus [18]) | MIC [19] | MIC [24] | MIC [34]
32 µg/mL: MIC [5] | MIC [17] | MIC [26] | MIC [32]
0.0016 µg/mL: MBC (Escherichia coli [7]) | MBC (Escherichia coli [23]) | MBC (Escherichia coli [37])
0.125 µg/mL: MIC [27] | MIC [30]
0.5 µg/mL: MBC [14] | MBC [21] | MIC (Staphylococcus aureus [25]) | MIC (Staphylococcus aureus [40])
128 µg/mL: MBC [36] | MBC [38] | MBC [39]
0.0625 µg/mL: MIC [9] | MIC (Pseudomonas aeruginosa [29])
256 µg/mL: MBC [33]
